“And” between values parts separate entries of the source, which are not always exact repeats. Identical values can stand only once. Like-named read-outs stand apart in the source and are kept apart here.
Legend:
in vitro [1] = conditions: both, human, microsomes, pH 7.4
in vitro [2] = conditions: male, C57BL/6J, mouse, microsomes, pH 7.4
hCB2R [3] = target: T1, hCB2R (Homo sapiens, UniProt P34972); assay: cell-based; type: cell-based; design: expressed in transfected cells; host or cells: Flp-In-293 (Invitrogen #R750-07), pcDNA5/FRT; conditions: AtT20, read-out: Emax ± SEM GIRK hCB2R
hCB1R [4] = target: T2, hCB1R (Homo sapiens, UniProt P21554); assay: cell-based; type: cell-based; conditions: AtT20, read-out: Emax ± SEM GIRK hCB1R
T2 construct: host or cells: CHO

hCB1R [5] = target: T2, hCB1R; assay: cell-based; type: cell-based; conditions: read-out: Emax ± SEM pERK hCB1R
mCB1R [6] = target: T3, mCB1R (Mus musculus, UniProt P47746); assay: biochemical; type: binding
T3 construct: from tissue; host or cells: brain of male C57BL/6J mice

hCB2R [7] = target: T1, hCB2R; design: expressed in transfected cells; host or cells: Flp-In-293 (Invitrogen #R750-07), pcDNA5/FRT
C57BL6/J mice [8] = assay: Triad assay: hypothermia; type: in vivo, mouse; conditions: i.p., cumulative dosing, mice
hCB1R [9] = target: T2, hCB1R; assay: cell-based
C57BL6/J mice [10] = assay: Triad assay: antinociception; type: in vivo, mouse; conditions: i.p., cumulative dosing, mice
hCB2R [11] = target: T1, hCB2R; assay: cell-based; type: cell-based; design: expressed in transfected cells; host or cells: Flp-In-293 (Invitrogen #R750-07), pcDNA5/FRT; conditions: read-out: Emax ± SEM pERK hCB2R
mCB2R [12] = target: T4, mCB2R (Mus musculus, UniProt P47936); assay: biochemical; type: biochemical; design: from tissue; host or cells: spleen of male C57BL/6J mice
hCB1R [13] = target: T2, hCB1R; assay: biochemical; type: binding
C57BL6/J mice [14] = assay: Triad assay: catalepsy; type: in vivo, mouse; conditions: i.p., cumulative dosing, mice
mCB1R [15] = target: T3, mCB1R; assay: biochemical
[16] = test system: AEA reuptake in HaCaT cells; assay: cells; type: cell-based, human; conditions: Homo sapiens, HaCaT
hCB2R [17] = target: T1, hCB2R; assay: cell-based; type: cell-based; design: expressed in transfected cells; host or cells: Flp-In-293 (Invitrogen #R750-07), pcDNA5/FRT; conditions: read-out: Emax ± SEM cAMP hCB2R
mCB2R [18] = target: T4, mCB2R; assay: biochemical; type: binding; design: from tissue; host or cells: spleen of male C57BL/6J mice; conditions: mouse spleen membranes; read-out: pKi ± SEM mCB2R (converted)
physchem = conditions: pH 6.5, aqueous buffer, thermodynamic from solid

T4 sequence (P47936 whole entry): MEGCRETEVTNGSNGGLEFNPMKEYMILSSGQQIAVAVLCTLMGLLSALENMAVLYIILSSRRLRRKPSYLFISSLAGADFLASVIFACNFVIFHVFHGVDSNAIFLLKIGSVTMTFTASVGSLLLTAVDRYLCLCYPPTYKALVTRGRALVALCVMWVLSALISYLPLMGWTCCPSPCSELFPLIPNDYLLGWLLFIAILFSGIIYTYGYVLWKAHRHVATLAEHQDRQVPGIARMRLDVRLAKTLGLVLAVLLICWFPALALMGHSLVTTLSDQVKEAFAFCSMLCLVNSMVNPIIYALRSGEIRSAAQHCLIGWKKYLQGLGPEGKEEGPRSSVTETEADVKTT
T3 sequence (P47746 whole entry): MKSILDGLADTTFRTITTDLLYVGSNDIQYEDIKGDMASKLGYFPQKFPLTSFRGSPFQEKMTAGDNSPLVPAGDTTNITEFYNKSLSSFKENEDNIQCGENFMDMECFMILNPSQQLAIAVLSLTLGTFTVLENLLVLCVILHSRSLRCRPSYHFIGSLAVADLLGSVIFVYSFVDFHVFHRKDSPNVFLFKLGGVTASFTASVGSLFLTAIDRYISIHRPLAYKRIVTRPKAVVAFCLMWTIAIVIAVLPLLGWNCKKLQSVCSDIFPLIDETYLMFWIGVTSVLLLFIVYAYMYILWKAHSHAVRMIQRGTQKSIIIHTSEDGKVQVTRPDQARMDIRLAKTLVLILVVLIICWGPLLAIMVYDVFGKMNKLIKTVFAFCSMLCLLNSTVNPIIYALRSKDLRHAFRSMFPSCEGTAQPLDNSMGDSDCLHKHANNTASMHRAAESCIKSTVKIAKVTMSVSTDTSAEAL
T2 sequence (P21554 whole entry): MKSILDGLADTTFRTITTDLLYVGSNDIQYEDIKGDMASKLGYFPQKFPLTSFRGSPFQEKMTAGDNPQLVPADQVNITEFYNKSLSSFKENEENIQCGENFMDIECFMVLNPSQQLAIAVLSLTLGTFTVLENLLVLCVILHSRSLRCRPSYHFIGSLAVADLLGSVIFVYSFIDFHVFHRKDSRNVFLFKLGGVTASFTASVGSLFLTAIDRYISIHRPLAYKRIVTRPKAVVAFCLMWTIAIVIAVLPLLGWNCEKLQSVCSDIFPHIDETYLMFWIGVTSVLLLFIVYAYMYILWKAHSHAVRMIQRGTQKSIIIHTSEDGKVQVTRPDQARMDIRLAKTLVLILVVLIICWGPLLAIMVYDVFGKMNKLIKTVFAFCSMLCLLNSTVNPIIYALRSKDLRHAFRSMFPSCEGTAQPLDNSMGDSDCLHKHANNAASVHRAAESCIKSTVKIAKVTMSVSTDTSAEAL
T1 sequence (P34972 whole entry): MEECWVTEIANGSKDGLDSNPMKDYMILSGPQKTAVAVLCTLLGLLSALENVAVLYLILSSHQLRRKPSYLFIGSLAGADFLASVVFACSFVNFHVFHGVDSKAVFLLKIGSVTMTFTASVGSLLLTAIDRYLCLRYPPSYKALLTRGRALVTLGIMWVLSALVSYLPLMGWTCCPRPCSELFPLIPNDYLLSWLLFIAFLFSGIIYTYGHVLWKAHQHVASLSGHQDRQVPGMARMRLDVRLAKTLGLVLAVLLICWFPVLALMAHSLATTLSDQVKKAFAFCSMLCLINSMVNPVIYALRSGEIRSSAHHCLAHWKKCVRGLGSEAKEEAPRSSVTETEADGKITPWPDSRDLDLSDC

CCCCCCC(C)(C)c1cc(O)c2c(c1)OC(C)(C)[C@@H]1CC=C(CO)C[C@@H]21 [HU210]
microsomal CLint (in vitro [1]): 25 µL/min/mg
microsomal CLint (in vitro [2]): 33 µL/min/mg
Emax (hCB2R [3]): 105 ± 4%
Emax (hCB1R [4]): 97 ± 8%
Pct acceptor (PAMPA): 0%
Pct donor (PAMPA): 23%
Pct membrane (PAMPA, compound found in membranes): 76%
Pampa Peff (membrane permeation coefficient): 0.22 cm/s*10-6
Emax (hCB1R [5]): 96 ± 7%
Ki (mCB1R [6]): 1.1 nM
LogR GIRK (hCB2R [7]): 7.19
LogR pERK (hCB2R [7]): 8.22
RE GIRK (hCB2R [7]): 0.21
RE pERK (hCB2R [7]): 0.15
pERK-GIRK bias factor (BF) (hCB2R [7]): 0.71
pERK-GIRK ΔΔlogR (hCB2R [7]): -0.15
ΔLogR GIRK (hCB2R [7]): -0.67
ΔLogR pERK (hCB2R [7]): -0.82
hypothermia ED50 (95% CL) (C57BL6/J mice [8]): 0.35 (0.30–0.41) mg kg^−1
EC50 (hCB1R [9]; pEC50 ± SEM cAMP hCB1R): 0.263 nM
Emax (hCB1R [9]; read-out: Emax ± SEM cAMP hCB1R): 104 ± 3%
antinociception ED50 (95% CL) (C57BL6/J mice [10]): 0.41 (0.31–0.54) mg kg^−1
Emax (hCB2R [11]): 105 ± 10%
EC50 (mCB2R [12]; mouse spleen, read-out: pEC50 ± SEM cAMP mCB2R (converted)): 6.61 nM
Emax (mCB2R [12]; read-out: Emax cAMP mCB2R): 68%
Ki (hCB1R [13]): 0.282 nM
catalepsy ED50 (95% CL) (C57BL6/J mice [14]): 0.19 (0.14–0.27) mg kg^−1
EC50 (mCB1R [15]; pEC50 ± SEM cAMP mCB1R): 0.0933 nM
Emax (mCB1R [15]; read-out: Emax cAMP mCB1R): 65%
inhibition at 10 µM ([16]; read-out: AEA reuptake % inhibition, effect at 10 µM, HaCaT cells, 10 µM (values marked *)): 44%
IC50 ([16]; read-out: AEA reuptake IC50 (95% CI) HaCaT cells): > 5000 nM
Emax (hCB2R [17]): 94 ± 0.1%
Ki (mCB2R [18]): 0.537 nM
solubility kinetic (physchem): < 0.2 µg/mL and < 0.5 µM

Reference: paper PMC5216056 (Nature Communications, 2017)
